Test results published in patent publication US4163799A, “Psychostimulant compounds” (Union Chimique Continentale U.C.C., priority 1975, dated 1979).
Where a name gives a salt, the structure may show the parent alone.

What was measured:
[1] = Determination of acute toxicity in the mouse (LD50, Behrens and Karber method); parameters: species or system mouse (male, Swiss NMRI); details: in vivo
Method: (§1) All the experiments described below were carried out on male rats weighing between 170 and 220 g (Wistar AF strain) and male mice weighing between 18 and 23 g (Swiss NMRI strain), unless indicated to the contrary. All the experiments were conducted in a constant-temperature laboratory (22±1° C.). […] Unless indicated to the contrary 10 animals per batch were always used.

[2] = Observation of animals, mouse; assay type: in vivo, mouse (male, Swiss NMRI)
Method: as §1

[3] = Observation of animals, rat; assay type: in vivo, rat (male, Wistar AF)
Method: as §1

[4] = Motor activity in the rat (actimeter); assay type: in vivo, rat (male, 90-110 g)
Method: as §1
The motor activity was determined on male rats weighing between 90 and 110 g with the aid of the actimeter, the same instrument cited with regard to motor activity in the mouse.
The NaAHDH doses were given immediately before the actimeter was switched on.

[5] = Perforated board test; assay type: in vivo
Method: as §1
The technique and apparatus described by Boissier and Simon (Physiol. Behav. 1967, 2, 444-448) were used. In these experiments 15 animals per group were used (except for 30 for the controls and 30 for the 32 mg/kg dose).

[6] = Hot plate test with the mouse; assay type: in vivo, mouse (male, Swiss NMRI)
Method: as §1
This test was used to measure the reaction time of the animals to a painful stimulus. Ten animals were used per point. Fifteen minutes after oral administration of NaAHDH (32 mg/kg) the reaction time (licking of front paws) of the mice exposed to the hot plate was 5.8 seconds while that of the controls was 7.3 seconds (significant difference at the 0.05 threshold).

[7] = Avoidance conditioning, two-compartment shuttle-box; assay type: in vivo, rat (male, Wistar AF); details: 16 and 64 mg/kg orally, previously trained rats
Method: as §1
This avoidance conditioning in the rat placed in a two-compartment shuttle-box described by Boissier and Simon (Therapie 1968, 23, 1267-1276) was studied.

[8] = Conditioned-inhibition test (four-plate test); assay type: in vivo, mouse (male, Swiss NMRI); details: 4, 8, 16, 32 and 64 mg/kg
Method: as §1
A simple conditioned-inhibition test was used, namely the four-plate test (Neuropharmacology, Aron et al, 1971, 10, 459-470).

[9] = Modification of hypnotic effects (pentobarbital), mouse; assay type: in vivo, mouse (male, Swiss NMRI); details: 16, 32, 64 mg/kg orally, with or 60 minutes before pentobarbital
Method: as §1

[10] = Modification of hypnotic effects (pentobarbital), rat; assay type: in vivo, rat (male, Wistar AF); details: 16, 32, 64 mg/kg orally, with or 60 minutes before pentobarbital
Method: as §1

[11] = Antireserpine activity test, rat; assay type: in vivo, rat (male, Wistar AF); details: 8, 16, 32 mg/kg orally, reserpine 2.5 mg/kg IP 4 hours before
Method: as §1

[12] = Antioxotremorine activity test; assay type: in vivo, mouse (male, Swiss NMRI); details: 8, 16, 32 mg/kg orally or ip; oxotremorine 0.5 mg/kg IP
Method: as §1
In mice which received doses of 8, 16, and 32 mg/kg of NaAHDH orally or intraperitoneally the effects of oxotremorine (0.5 mg/kg IP) were unchanged, in terms of hyperthermia, trembling, lacrimation, hypersalivation, and defecation.

[13] = Anticataleptic activity test (prochlorperazine); assay type: in vivo, rat (male, Wistar AF); details: 8 or 32 mg/kg ip or orally; prochlorperazine 8 mg/kg ip; homolateral paws, buddha, rocking plate tests
Method: as §1

[14] = Stereotypy test with amphetamine; assay type: in vivo, rat (male, Wistar AF); details: 32 or 64 mg/kg orally 60 minutes before amphetamine 2 mg/kg IP
Method: as §1

[15] = tested on: monoaminoxidase; test: Inhibitory effect of monoaminoxidase (tryptamine test); assay type: in vivo, rat (male, Wistar AF); details: 16 and 64 mg/kg orally; tryptamine 3 mg/kg IV
Method: as §1

[16] = Interaction with convulsants: electric shock; assay type: in vivo, mouse (male, Swiss NMRI); details: 4, 16, 64 mg/kg orally 60 minutes before electric shock
Method: as §1

[17] = Overall activity and wakefulness profile (conclusion of the study); assay type: in vivo, rat and mouse
[18] = Antihypnotic effect / pentobarbital antagonism (conclusion); assay type: in vivo
[19] = Potentialization of apomorphine; assay type: in vivo; details: compared with caffeine; no method described
[20] = doses less than toxic, beginning with 4 mg/kg orally or ip
[21] = doses less than toxic, from 4 mg/kg orally or ip
[22] = doses very close to the lethal doses
[23] = only at doses very close to the lethal doses
[24] = 8 mg/kg orally 60 min before test
[25] = 16 mg/kg orally 60 min before test
[26] = 32 mg/kg orally 60 min before test
[27] = 64 mg/kg orally 60 min before test

CC(O)CC(c1ccccc1)C(C(=O)O)c1ccccc1 (stereo not drawn) [NaAHDH, Sodium Salt of 5-Hydroxy-2,3-Diphenyl-Hexanoic Acid]
LD50 ([1]; ip, intraperitoneally): 175 mg/kg
LD50 ([1]; po, administered orally): 998 mg/kg
excitation, reactivity to touch and sound stimuli [2, 20]: slight excitation was observed with enhanced reactivity to touch and sound stimuli
diameter of the pupil [2, 21]: no change was observed in the diameter of the pupil
hyperthermia [2, 21]: slight hyperthermia
motor coordination, abnormal or stereotyped movements [2, 21]: not accompanied by lack of motor coordination or abnormal or stereotyped movements
hyperthermia [2, 22]: about 2 °C
toxic signs [2, 23]: trembling, hyperreactivity to very intense stimuli, interaggressivity, and convulsive phenomena extending to the rear paws
sexual behavior [3]: increase of sexual behavior
excitation, reactivity to touch and sound stimuli [3, 20]: slight excitation was observed with enhanced reactivity to touch and sound stimuli
diameter of the pupil [3, 21]: no change was observed in the diameter of the pupil
hyperthermia [3, 21]: slight hyperthermia
motor coordination, abnormal or stereotyped movements [3, 21]: not accompanied by lack of motor coordination or abnormal or stereotyped movements
hyperthermia [3, 22]: about 2 °C
toxic signs [3, 23]: trembling, hyperreactivity to very intense stimuli, interaggressivity, and convulsive phenomena extending to the rear paws
number of beams interrupted, 30 + 5 min ([4]; 16 mg/kg ip): 39
number of beams interrupted, 30 + 10 min ([4]; 16 mg/kg ip): 67
number of beams interrupted, 30 + 15 min ([4]; 16 mg/kg ip): 104
number of beams interrupted, 30 + 20 min ([4]; 16 mg/kg ip): 133
number of beams interrupted, 30 + 25 min ([4]; 16 mg/kg ip): 156
number of beams interrupted, 30 + 30 min ([4]; 16 mg/kg ip): 182 ± 39
number of beams interrupted, 30 min ([4]; 16 mg/kg ip): 461 ± 32
number of beams interrupted, 30 + 5 min ([4]; 32 mg/kg ip): 88
number of beams interrupted, 30 + 10 min ([4]; 32 mg/kg ip): 191
number of beams interrupted, 30 + 15 min ([4]; 32 mg/kg ip): 274
number of beams interrupted, 30 + 20 min ([4]; 32 mg/kg ip): 372
number of beams interrupted, 30 + 25 min ([4]; 32 mg/kg ip): 452
number of beams interrupted, 30 + 30 min ([4]; 32 mg/kg ip): 531 ± 84
number of beams interrupted, 30 min ([4]; 32 mg/kg ip): 631 ± 49
number of beams interrupted, 30 + 5 min ([4]; 32 mg/kg vo (orally)): 31
number of beams interrupted, 30 + 10 min ([4]; 32 mg/kg vo (orally)): 69
number of beams interrupted, 30 + 15 min ([4]; 32 mg/kg vo (orally)): 100
number of beams interrupted, 30 + 20 min ([4]; 32 mg/kg vo (orally)): 118
number of beams interrupted, 30 + 25 min ([4]; 32 mg/kg vo (orally)): 131
number of beams interrupted, 30 + 30 min ([4]; 32 mg/kg vo (orally)): 164 ± 58
number of beams interrupted, 30 min ([4]; 32 mg/kg vo (orally)): 433 ± 43
number of beams interrupted, 30 + 5 min ([4]; 64 mg/kg vo (orally)): 58
number of beams interrupted, 30 + 10 min ([4]; 64 mg/kg vo (orally)): 124
number of beams interrupted, 30 + 15 min ([4]; 64 mg/kg vo (orally)): 197
number of beams interrupted, 30 + 20 min ([4]; 64 mg/kg vo (orally)): 265
number of beams interrupted, 30 + 25 min ([4]; 64 mg/kg vo (orally)): 325
number of beams interrupted, 30 + 30 min ([4]; 64 mg/kg vo (orally)): 396 ± 62
number of beams interrupted, 30 min ([4]; 64 mg/kg vo (orally)): 517 ± 25
motor activity ([4]; 16 and 32 mg/kg intraperitoneally): increase in motor activity
motor activity ([4]; 32 and 64 mg/kg orally): increase in motor activity
holes explored in 5 min [5, 24]: 101 percentage of controls
movements made in 5 min [5, 24]: 102 percentage of controls
holes explored in 5 min [5, 25]: 121 percentage of controls
movements made in 5 min [5, 25]: 116 percentage of controls
holes explored in 5 min [5, 26]: 140 percentage of controls
movements made in 5 min [5, 26]: 159 percentage of controls
holes explored in 5 min [5, 27]: 143 percentage of controls
movements made in 5 min [5, 27]: 150 percentage of controls
movements ([5]; orally): clear increase in movements
holes explored ([5]; orally, significant from 16 mg/kg upward): large increase in the holes explored
minimal effective dose ([5]; po, orally, read-out: dose from which increase in holes explored is significant): ≥ 16 mg/kg
effects of an analgesic dose of morphine on hot plate test ([6]; 32 mg/kg, with morphine): did not increase or decrease the effects of an analgesic dose of morphine
reaction time (licking of front paws) ([6]; 15 min after 32 mg/kg orally, controls 7.3 seconds, significant at 0.05): 5.8 s
change in avoidance conditioning [7]: no change in the conditioning
animals' performance in four-plate test [8]: slight in increase in the animals' performance
modification of conditioned inhibition [8]: no modification of conditioned inhibition
time taken to fall asleep or length of sleep [9]: no modification to the time taken to fall asleep or the length of sleep
time taken to fall asleep or length of sleep [10]: no modification to the time taken to fall asleep or the length of sleep
modification of hyperthermia or drooping eyelid induced by reserpine [11]: no modification of hyperthermia or drooping eyelid induced by reserpine
effects of oxotremorine (hyperthermia, trembling, lacrimation, hypersalivation, defecation) [12]: unchanged
modification of cataleptic condition [13]: no modification to the cataleptic condition
modification of amphetamine stereotyped movements [14]: no modification in stereotyped movements
potentialization of effects of infra-convulsant dose of tryptamine [15]: no potentialization of the effects of an infra-convulsant dose of tryptamine
duration or appearance of the convulsions [16]: modified neither the duration nor appearance of the convulsions
motility after the convulsion [16]: no increase in motility after the convulsion
signs of sympathetic excitation ([17]; by contrast to nooanaleptics): no signs of sympathetic excitation
persistence of increase in activity and wakefulness ([17]; orally, after administration): about 2 hours
pentobarbital antagonism ([18]; at clearly stimulating doses): no pentobarbital antagonism
antihypnotic effect ([18]; compared with caffeine): no antihypnotic effect
potentialization of apomorphine [19]: does not potentialize apomorphine
